# Measurements taken from PubChem BioAssay AID651837 (Sanford-Burnham Center for Chemical Genomics, 2012).
# Calls of active or inactive are those of the source.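 How the source made its calls: active means compounds whose fitted half-inhibition dose is 9.7 micromolar or lower; inactive means the rest.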
# Test system: Sufu-KO-LIGHT mouse cells, Gli-luciferase reporter luminescence
# Test: Gli-SUFU pathway antagonists, Gli reporter, SAR follow-up, Sufu-KO-LIGHT mouse cells, luminescence, set 2 (AID 651837)
row,SMILES,IC50
1,N#Cc1cccc(C(=O)Nc2cc(N3CCCCC3)ncn2)c1,> 9.7 µM (inactive)
2,O=C(Nc1cc(N2CCCCC2)ncn1)c1ccc(C(F)(F)F)cc1,> 9.7 µM (inactive)
3,O=C(Nc1cc(N2CCCCC2)ncn1)c1ccc(Cl)cc1,> 9.7 µM (inactive)
4,CCOc1ccc(-c2nc(CSCC(=O)NC3CC3)c(C)o2)cc1,0.027 µM
5,O=C(Nc1cc(N2CCCCC2)ncn1)c1ccco1,> 9.7 µM (inactive)
6,Cc1ccc(C(=O)Nc2cc(N3CCCCC3)ncn2)cc1,> 9.7 µM (inactive)
7,COc1ccccc1C(=O)Nc1cc(N2CCCCC2)ncn1,> 9.7 µM (inactive)
8,CCOc1ccc(S(=O)(=O)NCc2ccncc2)cc1NC(=O)c1ccccc1,3.4 µM
9,O=C(Nc1cc(N2CCCCC2)ncn1)c1ccccc1C(F)(F)F,> 9.7 µM (inactive)
10,N#Cc1ccc(C(=O)Nc2cc(N3CCCCC3)ncn2)cc1,> 9.7 µM (inactive)
11,COc1cccc(C(=O)Nc2cc(N3CCCCC3)ncn2)c1,> 9.7 µM (inactive)
12,O=C(Nc1cc(N2CCCCC2)ncn1)c1ccccc1Cl,> 9.7 µM (inactive)

# The next lines start with the values.
row,IC50,SMILES
1,> 9.7 µM (inactive),O=C(Nc1cc(NCC2CCCO2)ncn1)c1ccccc1 (stereo not drawn)
2,> 9.7 µM (inactive),CC(C)CNc1cc(NC(=O)c2ccccc2)ncn1
3,0.024 µM,CC1CCN(c2cc(NC(=O)c3ccccc3)ncn2)CC1
4,0.023 µM,O=C(Nc1cc(N2CCCCC2)ncn1)c1ccccc1
5,> 9.7 µM (inactive),CC(C)Nc1cc(NC(=O)c2ccccc2)ncn1
6,> 9.7 µM (inactive),CCCCN(C)c1cc(NC(=O)c2ccccc2)ncn1
7,0.035 µM,O=C(Nc1cc(N2CCCCCC2)ncn1)c1ccccc1
8,> 9.7 µM (inactive),CC(C)(C)Nc1cc(NC(=O)c2ccccc2)ncn1
9,> 9.7 µM (inactive),CC1CCCCN1c1cc(NC(=O)c2ccccc2)ncn1 (stereo not drawn)
10,> 9.7 µM (inactive),CN1CCN(c2cc(NC(=O)c3ccccc3)ncn2)CC1
11,> 9.7 µM (inactive),O=C(Nc1cc(N2CCNCC2)ncn1)c1ccccc1
12,> 9.7 µM (inactive),CC(C)(C)OC(=O)N1CCN(c2cc(NC(=O)c3ccccc3)ncn2)CC1
13,> 9.7 µM (inactive),CCCCNc1cc(NC(=O)c2ccccc2)ncn1
14,> 9.7 µM (inactive),O=C(Nc1cc(N2CCOCC2)ncn1)c1ccccc1
15,> 9.7 µM (inactive),CCC(C)Nc1cc(NC(=O)c2ccccc2)ncn1 (stereo not drawn)
16,> 9.7 µM (inactive),O=C(Nc1cc(N2CCSCC2)ncn1)c1ccccc1
